“And” between values parts separate entries of the source, which are not always exact repeats. Equal values may be shown once.
Assays:
Test in all cases: radiometric filter-binding kinase assay, Kinase HotSpot
Details in all cases: compound 0.5 µM; ATP 10 µM
[1] = biological target: MAPK14 (human) (UniProt Q16539)
[2] = biological target: HIPK1 (human) (UniProt Q86Z02)
[3] = biological target: INSR (human) (UniProt P06213)
[4] = biological target: PLK3 (human) (UniProt Q9H4B4)
[5] = biological target: SLK (human) (UniProt Q9H2G2)
[6] = biological target: CDK5 CDK5R1 p35 (human) (UniProt Q00535+Q15078)
[7] = biological target: PAK2 (human) (UniProt Q13177)
[8] = biological target: CDK9 CCNT1 (human) (UniProt P50750+O60563)
[9] = biological target: MAPK13 (human) (UniProt O15264)
[10] = biological target: SGK2 (human) (UniProt Q9HBY8)
[11] = biological target: MELK (human) (UniProt Q14680)
[12] = biological target: DDR2 (human) (UniProt Q16832)
[13] = biological target: AKT2 (human) (UniProt P31751)
[14] = biological target: CAMK2G (human) (UniProt Q13555)
[15] = biological target: BMX (human) (UniProt P51813)
[16] = biological target: EPHA8 (human) (UniProt P29322)
[17] = biological target: TTK (human) (UniProt P33981)
[18] = biological target: FGFR4 (human) (UniProt P22455)
[19] = biological target: STK25 (human) (UniProt O00506)
[20] = biological target: PRKACA (human) (UniProt P17612)
[21] = biological target: DMPK (human) (UniProt Q09013)
[22] = biological target: IRAK1 (human) (UniProt P51617)
[23] = biological target: BLK (human) (UniProt P51451)
[24] = biological target: PAK7 (human) (UniProt Q9P286)
[25] = biological target: EPHA7 (human) (UniProt Q15375)
[26] = biological target: MATK (human) (UniProt P42679)
[27] = biological target: EPHB4 (human) (UniProt P54760)
[28] = biological target: CDK6 CCND1 (human) (UniProt Q00534+P24385)
[29] = biological target: GRK5 (human) (UniProt P34947)
[30] = biological target: GSK3A (human) (UniProt P49840)
[31] = biological target: HIPK3 (human) (UniProt Q9H422)
[32] = biological target: MYLK (human) (UniProt Q15746)
[33] = biological target: SRC (human) (UniProt P12931)
[34] = biological target: NLK (human) (UniProt Q9UBE8)
[35] = biological target: CSNK1G1 (human) (UniProt Q9HCP0)
[36] = biological target: PRKCG (human) (UniProt P05129)
[37] = biological target: TEC (human) (UniProt P42680)
[38] = biological target: STK33 (human) (UniProt Q9BYT3)
[39] = biological target: FGFR2 (human) (UniProt P21802)
[40] = biological target: SRPK3 (human) (UniProt Q9UPE1)
[41] = biological target: PLK2 (human) (UniProt Q9NYY3)
[42] = biological target: PRKG1 (human) (UniProt Q13976)
PRKG1 (human), sequence (Q13976 whole entry, looked up): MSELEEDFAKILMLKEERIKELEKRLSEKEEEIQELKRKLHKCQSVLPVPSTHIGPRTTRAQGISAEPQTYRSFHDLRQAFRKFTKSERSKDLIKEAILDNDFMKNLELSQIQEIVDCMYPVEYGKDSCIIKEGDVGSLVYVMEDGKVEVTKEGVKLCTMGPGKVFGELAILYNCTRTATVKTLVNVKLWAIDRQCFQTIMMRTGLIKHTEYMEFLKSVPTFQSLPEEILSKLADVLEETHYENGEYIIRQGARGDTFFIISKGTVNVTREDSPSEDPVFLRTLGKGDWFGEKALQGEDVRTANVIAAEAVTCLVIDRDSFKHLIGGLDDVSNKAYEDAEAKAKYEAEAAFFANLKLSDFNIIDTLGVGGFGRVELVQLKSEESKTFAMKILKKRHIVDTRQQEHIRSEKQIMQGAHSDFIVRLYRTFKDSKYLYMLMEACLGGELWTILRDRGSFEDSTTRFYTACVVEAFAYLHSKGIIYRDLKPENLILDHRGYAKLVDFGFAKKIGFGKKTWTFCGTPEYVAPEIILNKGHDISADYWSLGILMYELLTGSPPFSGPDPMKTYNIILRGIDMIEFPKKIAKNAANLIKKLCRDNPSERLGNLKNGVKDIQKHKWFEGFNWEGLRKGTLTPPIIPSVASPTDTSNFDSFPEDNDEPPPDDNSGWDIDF

SGK2 (human), sequence (Q9HBY8 whole entry, looked up): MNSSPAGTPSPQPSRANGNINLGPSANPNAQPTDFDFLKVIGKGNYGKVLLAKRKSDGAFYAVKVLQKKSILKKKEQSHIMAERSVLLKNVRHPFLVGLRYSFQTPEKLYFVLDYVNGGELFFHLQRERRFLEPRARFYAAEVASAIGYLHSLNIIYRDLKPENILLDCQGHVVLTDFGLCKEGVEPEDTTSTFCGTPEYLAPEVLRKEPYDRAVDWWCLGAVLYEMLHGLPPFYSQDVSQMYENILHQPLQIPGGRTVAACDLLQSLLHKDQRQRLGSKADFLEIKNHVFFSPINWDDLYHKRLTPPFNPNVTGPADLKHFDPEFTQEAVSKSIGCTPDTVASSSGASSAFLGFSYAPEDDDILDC
MATK (human), sequence (P42679 whole entry, looked up): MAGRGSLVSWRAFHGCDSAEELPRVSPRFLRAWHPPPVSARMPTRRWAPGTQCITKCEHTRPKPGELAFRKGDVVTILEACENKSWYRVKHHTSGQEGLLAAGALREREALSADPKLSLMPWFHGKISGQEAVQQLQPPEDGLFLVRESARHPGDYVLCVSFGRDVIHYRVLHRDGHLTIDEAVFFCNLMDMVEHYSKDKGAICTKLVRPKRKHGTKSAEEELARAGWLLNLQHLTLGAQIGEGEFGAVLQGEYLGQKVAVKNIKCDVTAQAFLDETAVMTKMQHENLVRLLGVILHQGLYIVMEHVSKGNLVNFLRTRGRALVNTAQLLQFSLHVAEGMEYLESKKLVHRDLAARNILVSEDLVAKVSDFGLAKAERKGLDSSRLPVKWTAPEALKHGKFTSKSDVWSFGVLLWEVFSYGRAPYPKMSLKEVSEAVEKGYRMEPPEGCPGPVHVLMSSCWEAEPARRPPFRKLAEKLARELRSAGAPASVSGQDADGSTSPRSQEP
CDK6 CCND1 (human), sequence (P24385 whole entry, looked up): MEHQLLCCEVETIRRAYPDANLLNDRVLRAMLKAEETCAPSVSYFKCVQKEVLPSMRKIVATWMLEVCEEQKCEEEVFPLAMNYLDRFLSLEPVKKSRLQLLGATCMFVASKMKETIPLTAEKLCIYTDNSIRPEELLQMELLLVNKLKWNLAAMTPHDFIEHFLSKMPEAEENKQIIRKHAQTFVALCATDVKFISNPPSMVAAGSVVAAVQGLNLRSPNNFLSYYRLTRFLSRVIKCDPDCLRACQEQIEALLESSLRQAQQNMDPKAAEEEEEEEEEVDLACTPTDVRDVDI
CDK6 CCND1 (human), sequence (Q00534 whole entry, looked up): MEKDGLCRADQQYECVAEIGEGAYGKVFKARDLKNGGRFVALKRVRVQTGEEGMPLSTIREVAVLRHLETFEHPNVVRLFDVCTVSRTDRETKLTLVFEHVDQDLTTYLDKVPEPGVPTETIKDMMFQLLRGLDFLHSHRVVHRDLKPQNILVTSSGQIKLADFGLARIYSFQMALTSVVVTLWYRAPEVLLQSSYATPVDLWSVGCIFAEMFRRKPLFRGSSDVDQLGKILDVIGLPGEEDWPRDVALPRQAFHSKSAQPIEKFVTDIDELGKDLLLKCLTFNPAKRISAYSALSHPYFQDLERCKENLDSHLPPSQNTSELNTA
TEC (human), sequence (P42680 whole entry, looked up): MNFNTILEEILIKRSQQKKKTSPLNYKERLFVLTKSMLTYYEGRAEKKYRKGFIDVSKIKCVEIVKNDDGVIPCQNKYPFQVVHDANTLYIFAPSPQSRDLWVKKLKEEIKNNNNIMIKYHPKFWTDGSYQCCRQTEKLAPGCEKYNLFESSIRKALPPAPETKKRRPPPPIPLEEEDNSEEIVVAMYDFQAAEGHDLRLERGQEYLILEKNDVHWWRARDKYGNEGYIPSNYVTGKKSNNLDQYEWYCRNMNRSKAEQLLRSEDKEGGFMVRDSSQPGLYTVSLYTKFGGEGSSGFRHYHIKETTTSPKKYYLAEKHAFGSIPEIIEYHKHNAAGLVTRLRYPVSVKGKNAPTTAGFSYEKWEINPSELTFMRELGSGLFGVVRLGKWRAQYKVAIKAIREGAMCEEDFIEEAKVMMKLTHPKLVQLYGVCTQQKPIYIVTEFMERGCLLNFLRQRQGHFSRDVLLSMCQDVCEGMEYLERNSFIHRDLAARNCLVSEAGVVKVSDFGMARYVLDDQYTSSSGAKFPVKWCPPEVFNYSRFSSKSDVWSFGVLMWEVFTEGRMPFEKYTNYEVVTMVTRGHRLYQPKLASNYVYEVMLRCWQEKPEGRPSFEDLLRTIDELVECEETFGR
HIPK3 (human), sequence (Q9H422 whole entry, looked up): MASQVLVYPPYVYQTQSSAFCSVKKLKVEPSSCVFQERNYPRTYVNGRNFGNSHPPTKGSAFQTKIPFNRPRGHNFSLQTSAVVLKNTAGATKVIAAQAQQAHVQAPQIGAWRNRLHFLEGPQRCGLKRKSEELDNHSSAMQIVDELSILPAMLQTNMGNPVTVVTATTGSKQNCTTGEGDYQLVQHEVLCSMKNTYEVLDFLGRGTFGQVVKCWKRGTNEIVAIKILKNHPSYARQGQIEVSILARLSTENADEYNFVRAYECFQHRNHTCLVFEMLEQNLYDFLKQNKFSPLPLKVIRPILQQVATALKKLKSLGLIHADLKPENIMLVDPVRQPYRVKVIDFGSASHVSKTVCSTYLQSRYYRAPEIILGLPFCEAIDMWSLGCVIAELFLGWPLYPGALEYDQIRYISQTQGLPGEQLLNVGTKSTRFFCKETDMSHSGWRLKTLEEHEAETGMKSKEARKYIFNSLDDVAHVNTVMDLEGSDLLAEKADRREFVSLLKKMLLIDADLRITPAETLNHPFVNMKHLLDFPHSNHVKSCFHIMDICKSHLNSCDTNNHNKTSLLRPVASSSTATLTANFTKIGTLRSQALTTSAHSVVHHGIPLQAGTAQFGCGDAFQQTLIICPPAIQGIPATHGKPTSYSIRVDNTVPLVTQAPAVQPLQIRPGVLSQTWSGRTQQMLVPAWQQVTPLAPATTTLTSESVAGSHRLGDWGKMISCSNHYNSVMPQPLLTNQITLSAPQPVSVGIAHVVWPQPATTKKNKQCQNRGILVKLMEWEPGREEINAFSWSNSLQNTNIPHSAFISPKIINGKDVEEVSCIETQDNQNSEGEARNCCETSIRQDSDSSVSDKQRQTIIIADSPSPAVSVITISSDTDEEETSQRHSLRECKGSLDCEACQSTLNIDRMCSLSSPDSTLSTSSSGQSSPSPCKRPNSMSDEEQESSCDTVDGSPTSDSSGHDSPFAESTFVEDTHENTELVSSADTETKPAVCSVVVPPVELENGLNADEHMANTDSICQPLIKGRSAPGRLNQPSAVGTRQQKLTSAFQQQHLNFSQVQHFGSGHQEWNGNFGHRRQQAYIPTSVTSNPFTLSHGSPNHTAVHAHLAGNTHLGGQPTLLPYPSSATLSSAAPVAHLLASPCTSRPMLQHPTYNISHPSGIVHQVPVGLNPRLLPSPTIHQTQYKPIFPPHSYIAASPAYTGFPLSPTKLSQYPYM
PAK7 (human), sequence (Q9P286 whole entry, looked up): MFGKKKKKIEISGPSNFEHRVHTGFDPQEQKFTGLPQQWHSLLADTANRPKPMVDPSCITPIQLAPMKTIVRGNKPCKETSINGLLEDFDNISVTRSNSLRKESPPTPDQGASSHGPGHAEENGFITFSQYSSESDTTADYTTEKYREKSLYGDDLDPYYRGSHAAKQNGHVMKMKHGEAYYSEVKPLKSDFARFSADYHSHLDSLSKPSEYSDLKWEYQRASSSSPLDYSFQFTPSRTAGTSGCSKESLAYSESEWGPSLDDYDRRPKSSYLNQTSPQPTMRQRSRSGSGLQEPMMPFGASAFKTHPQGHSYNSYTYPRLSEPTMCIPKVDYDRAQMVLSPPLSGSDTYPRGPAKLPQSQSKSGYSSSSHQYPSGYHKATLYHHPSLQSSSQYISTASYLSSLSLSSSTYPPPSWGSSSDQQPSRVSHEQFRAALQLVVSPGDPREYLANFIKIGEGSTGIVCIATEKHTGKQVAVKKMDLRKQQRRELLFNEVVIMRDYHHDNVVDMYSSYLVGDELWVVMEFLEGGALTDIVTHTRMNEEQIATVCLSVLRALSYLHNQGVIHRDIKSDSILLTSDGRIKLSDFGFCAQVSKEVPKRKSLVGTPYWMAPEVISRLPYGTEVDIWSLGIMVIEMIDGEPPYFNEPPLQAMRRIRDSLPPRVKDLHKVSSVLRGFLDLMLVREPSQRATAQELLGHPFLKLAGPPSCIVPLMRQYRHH

Work on `O=C1NC(=O)C(c2cn(CCCO)c3ncccc23)=C1c1cnccn1` yielded a residual activity [1] of 107%, a residual activity [2] of 84.2% and a residual activity [3] of 92.9%. For the same compound, the residual activity [4] was 91.1%, the residual activity [5] was 106% and the residual activity [6] was 73.9%. It also gave a residual activity [7] of 105%, a residual activity [8] of 88.3% and a residual activity [9] of 96.5%. The residual activity [10] was 96.9%, the residual activity [11] was 101% and the residual activity [12] was 94.6%. For the same compound, the residual activity [13] was 114%, the residual activity [14] was 90.6% and the residual activity [15] was 97.8%. The residual activity [16] was 86.9%, the residual activity [17] was 94.5% and the residual activity [18] was 91.5%. The residual activity [19] was 78.9%, the residual activity [20] was 87.7% and the residual activity [21] was 99.6%. It also gave a residual activity [22] of 76.6%, a residual activity [23] of 87.1% and a residual activity [24] of 88.2%. The residual activity [25] was 105%, the residual activity [26] was 95.5% and the residual activity [27] was 95.2%. For the same compound, the residual activity [28] was 83.4%, the residual activity [29] was 116% and the residual activity [30] was 8.56%. For the same compound, the residual activity [31] was 89.2%, the residual activity [32] was 74% and the residual activity [33] was 78.9%. It also gave a residual activity [34] of 91.2%, a residual activity [35] of 101% and a residual activity [36] of 93.1%. It also gave a residual activity [37] of 120%, a residual activity [38] of 82.8% and a residual activity [39] of 103%. For the same compound, the residual activity [40] was 91.2% and the residual activity [41] was 104%.
For `Cn1sc(=O)n(Cc2ccccc2)c1=O`, the residual activity [1] was 101%, the residual activity [2] was 92.3% and the residual activity [3] was 93.7%. The residual activity [4] was 99.1%, the residual activity [5] was 84.7% and the residual activity [6] was 90.1%. It also gave a residual activity [7] of 104%, a residual activity [8] of 94.2% and a residual activity [9] of 97.5%. It also gave a residual activity [10] of 100%, a residual activity [11] of 99.3% and a residual activity [12] of 102%. It also gave a residual activity [13] of 99.2%, a residual activity [14] of 90.1% and a residual activity [15] of 91.6%. For the same compound, the residual activity [16] was 94.4%, the residual activity [17] was 101% and the residual activity [18] was 97.2%. It also gave a residual activity [19] of 96.2%, a residual activity [20] of 105% and a residual activity [21] of 100%. It also gave a residual activity [22] of 116%, a residual activity [23] of 101% and a residual activity [24] of 81.1%. The residual activity [42] was 93.2% and 95.9%, the residual activity [25] was 105% and the residual activity [26] was 95.3%. It also gave a residual activity [27] of 100%, a residual activity [28] of 106% and a residual activity [29] of 93.6%. The residual activity [30] was 94.5%, the residual activity [31] was 94.9% and the residual activity [32] was 94.5%. It also gave a residual activity [33] of 95%, a residual activity [34] of 105% and a residual activity [35] of 95.2%. The residual activity [36] was 86.6%, the residual activity [37] was 117% and the residual activity [38] was 101%. The residual activity [40] was 97.3% and the residual activity [41] was 106%.
For `Cn1cnc2cc3c(Nc4cccc(Br)c4)ncnc3cc21`, the residual activity [1] was 93.6%, the residual activity [2] was 108% and the residual activity [3] was 94.4%. The residual activity [4] was 99.8%, the residual activity [5] was 67.8% and the residual activity [6] was 84.6%. It also gave a residual activity [7] of 99.8%, a residual activity [8] of 88.5% and a residual activity [9] of 101%. It also gave a residual activity [10] of 104%, a residual activity [11] of 89% and a residual activity [12] of 102%. It also gave a residual activity [13] of 106%, a residual activity [14] of 104% and a residual activity [15] of 96.6%. It also gave a residual activity [16] of 85.4%, a residual activity [17] of 95.7% and a residual activity [18] of 94.1%. For the same compound, the residual activity [19] was 99%, the residual activity [20] was 105% and the residual activity [21] was 98.4%. For the same compound, the residual activity [22] was 80.5%, the residual activity [23] was 81% and the residual activity [24] was 86.1%. For the same compound, the residual activity [42] was 97.8% and 98%, the residual activity [25] was 72% and the residual activity [26] was 85.9%. The residual activity [28] was 107%, the residual activity [29] was 109% and the residual activity [30] was 100%. The residual activity [31] was 107%, the residual activity [32] was 83.3% and the residual activity [33] was 81.2%. For the same compound, the residual activity [34] was 100%, the residual activity [35] was 104% and the residual activity [36] was 93.9%. The residual activity [37] was 123%, the residual activity [38] was 99.3% and the residual activity [39] was 98%. The residual activity [40] was 94.9% and the residual activity [41] was 101%.
